The values below come from patent publication US20210395226A1, “SUBSTITUTED ARYL COMPOUND AND PREPARATION METHOD THEREFOR AND USE THEREOF” (SICHUAN KELUN-BIOTECH BIOPHARMACEUTICAL CO., LTD., priority 2018, published 2021).

As a reminder, the Ki is a dissociation constant, usually derived from enzyme kinetics or from competition with a known ligand. What is called bioavailability is the share of a dose that reaches the circulation, judged against a reference dose that is usually intravenous. Read a low bioavailability as poor availability. The Cmax is the maximum level reached in the sampled fluid or tissue.

The target of series [1] is T1, Adenosine A2a receptor (human) membrane (Homo sapiens, UniProt P29274).
T1 construct: purchased PerkinElmer RBHA2AM400UA
T1 sequence (P29274 whole entry): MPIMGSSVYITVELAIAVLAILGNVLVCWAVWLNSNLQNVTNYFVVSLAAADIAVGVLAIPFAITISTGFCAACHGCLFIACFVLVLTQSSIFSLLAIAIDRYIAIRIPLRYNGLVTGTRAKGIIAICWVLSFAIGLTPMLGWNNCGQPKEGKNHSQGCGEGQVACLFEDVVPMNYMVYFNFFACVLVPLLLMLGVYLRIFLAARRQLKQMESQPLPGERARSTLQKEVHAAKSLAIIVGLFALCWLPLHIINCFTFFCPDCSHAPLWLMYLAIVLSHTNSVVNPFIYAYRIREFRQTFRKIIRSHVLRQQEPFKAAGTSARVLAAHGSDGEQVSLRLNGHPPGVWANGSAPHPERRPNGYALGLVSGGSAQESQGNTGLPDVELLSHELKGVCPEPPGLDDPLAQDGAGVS
Briefly: Determination of competitive inhibition constant (Ki) for adenosine A2a receptor, [3H]-CGS-21680 radioligand. It counts as binding. The conditions noted are these: for Ki: human A2a receptor membrane, 6.0 nM [3H]-CGS-21680, read-out: Ki(A2a); for Ki(A1)/Ki(A2a): selectivity ratio A1 over A2a. In short, it runs like this:
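Human A2a receptor membranes (5.0 μg/well) were incubated 2 h at room temperature with [3H]-CGS-21680 (working concentration 6.0 nM) in 50 mM Tris-HCl pH 7.4, 10 mM MgCl2, 1 mM EDTA. Bound label was collected on PEI-treated GF/C filters and scintillation counted. Inhibition was scaled between 0.5% DMSO and 1000 nM CGS-15943 controls, IC50 was fitted, and Ki = IC50/(1 + [ligand]/Kd).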

A short description of series [2]: Pharmacokinetics (PK) and distribution in brain tissue in rats. It counts as in vivo, male SD rats. The conditions noted are these: for bioavailability / Cmax / AUC(0-t): male, SD; for bioavailability: plasma, oral 5 mg/kg compared with intravenous 1 mg/kg; for bioavailability / Plasma AUClast/brain AUClast: rat; for Cmax / AUC(0-t): rat plasma; for AUClast (brain): rat brain tissue. Here is the method:
Test Example 3: Study on Pharmacokinetics (PK) and Distribution in Brain Tissue in Rats
The compounds of the present application were administered to male SD rats by intravenous (IV) and intragastric (PO) respectively to investigate the pharmacokinetic characteristics. The dosages of IV and PO were 1 mg/kg and 5 mg/kg, respectively. The solvent for IV was a mixture of 5% DMSO, 5% Solutol (polyethylene glycol 15-hydroxystearate) and 90% saline, and the solvent for PO was 0.5% MC (methyl cellulose sodium). Before IV administration (0 h) and at 0.083 h, 0.25 h, 0.5 h, 1 h, 2 h, 4 h, 6 h, 8 h and 24 h time points after administration, blood samples were collected; before PO administration (0 h) and at 0.25 h, 0.5 h, 1 h, 2 h, 4 h, 6 h, 8 h and 24 h time points after administration, blood samples were collected; the blood samples were anticoagulated with EDTA.K2, and centrifuged to obtain plasma samples. For Compound 11, brain tissue samples were taken and homogenized at 0.25 h, 0.5 h, 1 h, 4 h and 8 h; for Compounds 19 and 32, and brain tissue samples were taken and homogenized at 0.25 h, 0.5 h, 1 h and 8 h (three SD rats were selected for the experiment of distribution in brain tissue at each time point), and the resulting brain tissue homogenate samples were stored at −80° C. The plasma samples and brain tissue homogenate samples were subjected to precipitation of protein, and then LC-MS/MS analysis was performed.
Pharmacokinetic parameters were calculated by means of non-compartmental model by using WinNonlin 6.3 software.

The mark [3] stands for this setting: PO, 5 mg/kg, read-out: AUClast (plasma).

Where two headings read alike, the source gives them in different places.

For the molecule `Cc1cc(-c2cnc(NC(=O)N3CCOCC3)nc2-c2ccc(F)cc2)cc(Cl)n1` [Compound 19, N-(5-(2-chloro-6-methylpyridin-4-yl)-4-(4-fluorophenyl)pyrimidin-2-yl) morpholine-4-carboxamide], in series [1], the Ki came out at 9.6 nM and the “Ki(A1)/Ki(A2a)” value turned out to be 146.3. The bioavailability in series [2] came to 86.8%. The same molecule came in with a Cmax in series [2] (IV, 1 mg/kg) of 1150 ng/mL. For the same molecule, the AUC(0-t) in series [2] (IV, 1 mg/kg, read-out: AUClast) is 2630 ng·h/mL. Besides, the AUC(0-t) in series [2] (setting [3]) came out at 11400 ng·h/mL. Further, in series [2] (PO, 5 mg/kg), the “AUClast (brain)” value was 70.2 ng·h/g and the “Plasma AUClast/brain AUClast” value is on record as 163/1.

As for `Cc1ncnc2ccc(-c3cnc(NC(=O)N4CCOCC4)nc3-c3ccc(F)cc3)cc12` [Compound 11, N-(4-(4-fluorophenyl)-5-(4-methylquinazolin-6-yl)pyrimidin-2-yl) morpholine-4-carboxamide], in series [1], the Ki turned out to be 3.4 nM and the “Ki(A1)/Ki(A2a)” value is on record as 59.9. The same molecule returned a bioavailability in series [2] of 65.3%. In addition, the Cmax in series [2] (IV, 1 mg/kg) turned out to be 1310 ng/mL. For the same molecule, the AUC(0-t) in series [2] (IV, 1 mg/kg, read-out: AUClast) was 985 ng·h/mL. Besides, the AUC(0-t) in series [2] (setting [3]) was determined as 3220 ng·h/mL. In series [2] (PO, 5 mg/kg), the “AUClast (brain)” value amounted to 11.4 ng·h/g and the “Plasma AUClast/brain AUClast” value is reported as 282/1.
